Measurements from article PMC9668969 (Nature Communications, 2022).

Target: T1, W206F ELIC (Dickeya chrysanthemi, UniProt P0C7B7, W205F)
T1 construct: host or cells: OverExpress C43 (DE3) E. coli
Test: Tryptophan fluorescence emission spectrum with and without agonist
Assay type: biochemical, Erwinia chrysanthemi
Conditions: W206F 30 mM Cys
Protocol: To measure the tryptophan (Trp) fluorescence emission of ELIC, WT or W206F ELIC was diluted to 3 ml (0.02 mg/ml) and an emission spectrum was collected in a quartz fluorescence cell using a Fluoromax Plus Spectrofluorometer (Horiba Scientific). […] Trp fluorescence measurements with rapid mixing of agonist was carried out using the SX20 stopped-flow spectrofluorometer, outfitted with a 295 nm LED excitation source. Purified ELIC was diluted to 0.1 mg/ml in Trp Stopped-flow Buffer A (10 mM Tris pH 7.5, 100 mM NaCl, 0.05% DDM). A single mixing experiment was performed by mixing ELIC with equal volumes of Buffer A + propylamine. Propylamine was prepared at varying concentrations at 2x the final concentration. The instrument dead time was ~1 ms, enabling capture of most of the time course of change in Trp fluorescence. The time course of decrease in Trp fluorescence after rapid mixing with propylamine was fit to a single exponential to obtain a time constant for the rate of decrease and a measure of the extent of decrease. All replicates were taken from distinct samples.

T1 sequence (P0C7B7 whole entry W205F): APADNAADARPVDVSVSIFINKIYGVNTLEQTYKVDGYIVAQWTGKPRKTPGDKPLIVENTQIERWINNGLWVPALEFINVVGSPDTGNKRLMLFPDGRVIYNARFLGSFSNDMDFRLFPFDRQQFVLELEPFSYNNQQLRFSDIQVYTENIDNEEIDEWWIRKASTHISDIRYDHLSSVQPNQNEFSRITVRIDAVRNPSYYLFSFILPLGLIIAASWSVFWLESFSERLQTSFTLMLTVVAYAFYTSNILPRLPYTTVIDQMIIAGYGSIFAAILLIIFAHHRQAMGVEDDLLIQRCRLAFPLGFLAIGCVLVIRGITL

NCCS [cysteamine]
Tryptophan fluorescence emission intensity (wavelength 320): 771490
Tryptophan fluorescence emission intensity (wavelength 321): 795430
Tryptophan fluorescence emission intensity (wavelength 322): 813680
Tryptophan fluorescence emission intensity (wavelength 323): 843300
Tryptophan fluorescence emission intensity (wavelength 324): 855410
Tryptophan fluorescence emission intensity (wavelength 325): 890410
Tryptophan fluorescence emission intensity (wavelength 327): 921570
Tryptophan fluorescence emission intensity (wavelength 328): 945690
Tryptophan fluorescence emission intensity (wavelength 329): 972730
Tryptophan fluorescence emission intensity (wavelength 330): 989960
Tryptophan fluorescence emission intensity (wavelength 331): 1002600
Tryptophan fluorescence emission intensity (wavelength 332): 1020470
Tryptophan fluorescence emission intensity (wavelength 333): 1032760
Tryptophan fluorescence emission intensity (wavelength 334): 1043250
Tryptophan fluorescence emission intensity (wavelength 335): 1051410
Tryptophan fluorescence emission intensity (wavelength 336): 1059950
Tryptophan fluorescence emission intensity (wavelength 337): 1062210
Tryptophan fluorescence emission intensity (wavelength 338): 1071660
Tryptophan fluorescence emission intensity (wavelength 339): 1076280
Tryptophan fluorescence emission intensity (wavelength 340): 1083710
Tryptophan fluorescence emission intensity (wavelength 341): 1085920
Tryptophan fluorescence emission intensity (wavelength 342): 1080500
Tryptophan fluorescence emission intensity (wavelength 343): 1081010
Tryptophan fluorescence emission intensity (wavelength 344): 1074670
Tryptophan fluorescence emission intensity (wavelength 345): 1071140
Tryptophan fluorescence emission intensity (wavelength 346): 1066530
Tryptophan fluorescence emission intensity (wavelength 347): 1060720
Tryptophan fluorescence emission intensity (wavelength 348): 1058590
Tryptophan fluorescence emission intensity (wavelength 349): 1045760
Tryptophan fluorescence emission intensity (wavelength 350): 1042330
Tryptophan fluorescence emission intensity (wavelength 351): 1034700
Tryptophan fluorescence emission intensity (wavelength 352): 1019030
Tryptophan fluorescence emission intensity (wavelength 353): 1010620
Tryptophan fluorescence emission intensity (wavelength 354): 993340
Tryptophan fluorescence emission intensity (wavelength 355): 980850
Tryptophan fluorescence emission intensity (wavelength 356): 973320
Tryptophan fluorescence emission intensity (wavelength 357): 961650
Tryptophan fluorescence emission intensity (wavelength 358): 938960
Tryptophan fluorescence emission intensity (wavelength 359): 924340
Tryptophan fluorescence emission intensity (wavelength 360): 898600
Tryptophan fluorescence emission intensity (wavelength 361): 886010
Tryptophan fluorescence emission intensity (wavelength 362): 867380
Tryptophan fluorescence emission intensity (wavelength 363): 844340
Tryptophan fluorescence emission intensity (wavelength 364): 830030
Tryptophan fluorescence emission intensity (wavelength 365): 813040
Tryptophan fluorescence emission intensity (wavelength 366): 786750
Tryptophan fluorescence emission intensity (wavelength 367): 769070
Tryptophan fluorescence emission intensity (wavelength 368): 749540
Tryptophan fluorescence emission intensity (wavelength 369): 729430
Tryptophan fluorescence emission intensity (wavelength 370): 711180
Tryptophan fluorescence emission intensity (wavelength 371): 692310
Tryptophan fluorescence emission intensity (wavelength 372): 672500
Tryptophan fluorescence emission intensity (wavelength 373): 652280
Tryptophan fluorescence emission intensity (wavelength 374): 629710
Tryptophan fluorescence emission intensity (wavelength 375): 618580
Tryptophan fluorescence emission intensity (wavelength 376): 599350
Tryptophan fluorescence emission intensity (wavelength 377): 580660
Tryptophan fluorescence emission intensity (wavelength 378): 563670
Tryptophan fluorescence emission intensity (wavelength 379): 543190
Tryptophan fluorescence emission intensity (wavelength 380): 522740
Tryptophan fluorescence emission intensity (wavelength 381): 502820
Tryptophan fluorescence emission intensity (wavelength 382): 487000
Tryptophan fluorescence emission intensity (wavelength 383): 475140
Tryptophan fluorescence emission intensity (wavelength 384): 456600
Tryptophan fluorescence emission intensity (wavelength 385): 440790
Tryptophan fluorescence emission intensity (wavelength 386): 423940
Tryptophan fluorescence emission intensity (wavelength 387): 405220
Tryptophan fluorescence emission intensity (wavelength 388): 397190
Tryptophan fluorescence emission intensity (wavelength 389): 381080
Tryptophan fluorescence emission intensity (wavelength 390): 363380
Tryptophan fluorescence emission intensity (wavelength 391): 352540
Tryptophan fluorescence emission intensity (wavelength 392): 336000
Tryptophan fluorescence emission intensity (wavelength 393): 325360
Tryptophan fluorescence emission intensity (wavelength 394): 311620
Tryptophan fluorescence emission intensity (wavelength 395): 300840
Tryptophan fluorescence emission intensity (wavelength 396): 285190
Tryptophan fluorescence emission intensity (wavelength 397): 272180
Tryptophan fluorescence emission intensity (wavelength 398): 260830
Tryptophan fluorescence emission intensity (wavelength 399): 250140
Tryptophan fluorescence emission intensity (wavelength 400): 241040
Tryptophan fluorescence emission intensity (wavelength 401): 226290
Tryptophan fluorescence emission intensity (wavelength 402): 221660
Tryptophan fluorescence emission intensity (wavelength 403): 211970
Tryptophan fluorescence emission intensity (wavelength 404): 203540
Tryptophan fluorescence emission intensity (wavelength 405): 194410
Tryptophan fluorescence emission intensity (wavelength 406): 184680
Tryptophan fluorescence emission intensity (wavelength 407): 177100
Tryptophan fluorescence emission intensity (wavelength 408): 169410
Tryptophan fluorescence emission intensity (wavelength 409): 164650
Tryptophan fluorescence emission intensity (wavelength 410): 155310
Tryptophan fluorescence emission intensity (wavelength 411): 149680
Tryptophan fluorescence emission intensity (wavelength 412): 144200
Tryptophan fluorescence emission intensity (wavelength 413): 137560
Tryptophan fluorescence emission intensity (wavelength 414): 131490
Tryptophan fluorescence emission intensity (wavelength 415): 127250
Tryptophan fluorescence emission intensity (wavelength 416): 120610
Tryptophan fluorescence emission intensity (wavelength 417): 116040
Tryptophan fluorescence emission intensity (wavelength 418): 113630
Tryptophan fluorescence emission intensity (wavelength 419): 109000
Tryptophan fluorescence emission intensity (wavelength 420): 104760
